Our source for the TGI values is PubChem BioAssay (NCI).

SMILES strings stand for the structures.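 A five-concentration, 48-hour dose response in 96-well plates underlies each endpoint, interpolated linearly between surrounding concentrations. At the TGI there is no net growth.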

Some test systems named below: SNB-19 CNS; IGROV1 ovarian; SN12C renal; A549 NSCLC; MALME-3M melanoma; COLO 205 colon; MDA-MB-231 breast; UACC-257 melanoma; MOLT-4 leukemia; OVCAR-5 ovarian.
What all share (assay): NCI tumour cell line growth inhibition, 48 h

As to `CC(=O)CC(O)(C(F)(F)Cl)C(F)(Cl)Cl` (stereo not given), the TGI in the assay with SNB-19 CNS, in the assay on IGROV1 ovarian, with SN12C renal, in the assay with A549 NSCLC, with MALME-3M melanoma and in the assay on COLO 205 colon was above 10 µM each time. Also, the TGI in the assay on MDA-MB-231 breast and in the assay on UACC-257 melanoma was above 10 µM each time.
With `O=C(O)c1ccccc1Sc1ccc(C=C2NC(=S)N(c3ccccc3)C2=O)s1`, the TGI in the assay on SNB-19 CNS, in the assay with IGROV1 ovarian, in the assay with SN12C renal, in the assay on MOLT-4 leukemia, in the assay on MALME-3M melanoma and with COLO 205 colon was above 100 µM each time. In addition, the TGI in the assay on MDA-MB-231 breast, in the assay on OVCAR-5 ovarian and in the assay with UACC-257 melanoma was above 100 µM throughout.
In the case of `Cc1csc(NCc2ccc(Cl)cc2)n1`, the TGI with SNB-19 CNS, in the assay with IGROV1 ovarian, with SN12C renal, in the assay with MOLT-4 leukemia, in the assay with A549 NSCLC and in the assay on MALME-3M melanoma was above 100 µM throughout. Moreover, the TGI is 63.1 µM in the assay on COLO 205 colon, above 100 µM with MDA-MB-231 breast, above 100 µM in the assay with OVCAR-5 ovarian and above 100 µM with UACC-257 melanoma.
Regarding `O=C(NCC(O)COc1ccccc1)c1ccccc1O` (stereo not given), the TGI in the assay on SNB-19 CNS is above 100 µM; in the assay on IGROV1 ovarian it was above 100 µM; in the assay on SN12C renal, above 100 µM; in the assay with MOLT-4 leukemia, 47.2 µM; in the assay on A549 NSCLC, above 100 µM; in the assay with MALME-3M melanoma, above 100 µM. In addition, the TGI with COLO 205 colon, in the assay with MDA-MB-231 breast, with OVCAR-5 ovarian and in the assay on UACC-257 melanoma was above 100 µM each time.
As for `CNC(=O)OC1/C(C)=C\C(C)C(O)C(OC)CC(C)CC2=C(OC)C(=O)C=C(C2=O)N(C)C(=O)/C(C)=C/C=C\C1OC` (stereo not given), the TGI is above 75.8 µM in the assay with SNB-19 CNS; 24.6 µM with IGROV1 ovarian; 16.5 µM in the assay on SN12C renal; 3.74 µM in the assay on MOLT-4 leukemia; 43.7 µM with A549 NSCLC; 27.1 µM with MALME-3M melanoma. For the same compound, the TGI was 7.9 µM in the assay with COLO 205 colon, 6.44 µM with MDA-MB-231 breast, 22.7 µM in the assay with OVCAR-5 ovarian and 19 µM with UACC-257 melanoma.
Take `CCCNC(=O)c1cc(OC)c(OC)cc1NC(=O)C12CC3CC(CC(C3)C1)C2`: the TGI in the assay on SNB-19 CNS is 30 µM; in the assay with IGROV1 ovarian it was 53.3 µM; in the assay on SN12C renal, 29.6 µM; in the assay on MOLT-4 leukemia, above 100 µM; in the assay on A549 NSCLC, 35.3 µM; in the assay with MALME-3M melanoma, 32.9 µM. The TGI with COLO 205 colon amounted to 56.6 µM; in the assay with MDA-MB-231 breast, 31.4 µM; in the assay on OVCAR-5 ovarian, 36.6 µM; in the assay with UACC-257 melanoma it was 32.8 µM.
Regarding `O=C1OCOC2(CCCC2)C1c1ccccc1` (stereo not given), the TGI in the assay on SNB-19 CNS, with IGROV1 ovarian, in the assay with SN12C renal, with MOLT-4 leukemia, with A549 NSCLC and with MALME-3M melanoma was above 100 µM throughout. Besides, the TGI in the assay on COLO 205 colon, in the assay on MDA-MB-231 breast, in the assay with OVCAR-5 ovarian and with UACC-257 melanoma was above 100 µM throughout.
As to `Cc1nc2nnc(CCCCCCCCc3nnc4nc(C)[nH]n34)n2[nH]1`, the TGI in the assay with SNB-19 CNS, in the assay on IGROV1 ovarian, in the assay with SN12C renal, with MOLT-4 leukemia, in the assay with A549 NSCLC and in the assay with MALME-3M melanoma was above 100 µM each time. The TGI in the assay with COLO 205 colon, in the assay on MDA-MB-231 breast, with OVCAR-5 ovarian and with UACC-257 melanoma was above 100 µM throughout.
Regarding `CCn1c(=O)c2nc(SC)sc2n(-c2ccccc2)c1=S`, the TGI in the assay on SNB-19 CNS, in the assay on IGROV1 ovarian, with SN12C renal, in the assay on MOLT-4 leukemia, in the assay on A549 NSCLC and with MALME-3M melanoma was above 100 µM throughout. Also, the TGI with MDA-MB-231 breast, in the assay with OVCAR-5 ovarian and in the assay on UACC-257 melanoma was above 100 µM each time.
For `O=[N+]([O-])c1ccc(CSC2=C(c3ccc(Cl)cc3)S/C(=C3\SC(SCc4ccc([N+](=O)[O-])cc4)=C(c4ccc(Cl)cc4)S3)S2)cc1`, the TGI with SNB-19 CNS, with IGROV1 ovarian, with SN12C renal, in the assay on MOLT-4 leukemia, in the assay with A549 NSCLC and in the assay on MALME-3M melanoma was above 100 µM throughout. Also, the TGI with COLO 205 colon, with MDA-MB-231 breast, in the assay on OVCAR-5 ovarian and in the assay on UACC-257 melanoma was above 100 µM in each case.
Turning to `COc1ccc2cc(CNCCCCCCNC(=O)Nc3cccc4ccccc34)ccc2c1`, the TGI with SNB-19 CNS, with IGROV1 ovarian, with SN12C renal, with MOLT-4 leukemia, with A549 NSCLC and in the assay with MALME-3M melanoma was above 100 µM throughout. In addition, the TGI with COLO 205 colon, with MDA-MB-231 breast, in the assay with OVCAR-5 ovarian and in the assay with UACC-257 melanoma was above 100 µM in each case.
`COc1cccc(C2c3cc4c(cc3OC(NNS(=O)(=O)c3ccc(C)cc3)C2C)OCO4)c1O` (stereo not given): the TGI in the assay with SNB-19 CNS is above 100 µM; with IGROV1 ovarian it was above 100 µM; in the assay on SN12C renal, above 100 µM; in the assay on MOLT-4 leukemia it was 52.1 µM; in the assay on A549 NSCLC it was above 100 µM; with MALME-3M melanoma it was 64.4 µM. The TGI with COLO 205 colon is 34.2 µM; with MDA-MB-231 breast, 49.2 µM; in the assay with OVCAR-5 ovarian it was above 100 µM; with UACC-257 melanoma, above 100 µM.
In the case of `C#C[C@]1(O)CC[C@H]2[C@@H]3CCC4=C/C(=N/OC(=O)c5cccc6cc7ccccc7nc56)CC[C@@H]4[C@H]3CC[C@@]21CC`, the TGI with SNB-19 CNS, in the assay with IGROV1 ovarian, with SN12C renal, in the assay with MOLT-4 leukemia, in the assay on A549 NSCLC and with COLO 205 colon was above 100 µM in each case. Also, the TGI in the assay on MDA-MB-231 breast, in the assay with OVCAR-5 ovarian and in the assay with UACC-257 melanoma was above 100 µM each time.
